This is an account of results in patent publication US4863920A, “Imidazodiazepine derivatives for treatment of disorders of the central nervous system” (Hoffmann-La Roche Inc., priority 1987, dated 1989).

For series [1], the target named is central benzodiazepine receptors (cerebral cortex). Kind of series: Affinity to benzodiazepine receptors (inhibition of tritiated diazepam binding in cerebral cortex). Conditions: inhibition of specific binding of tritiated diazepam, read-out: Affinity to benzodiazepine receptors IC 50. On the procedure: The affinity of compounds of formula I to the central benzodiazepine receptors was determined according to the method described in Life Science 20, 2101-2110 (1977) and Science 198, 849-851 (1977). According to this method, the inhibition of the binding of tritiated diazepam at the specific benzodiazepine receptors in the cerebral cortex by the respective test substances is ascertained. The IC50 ("50% inhibiting concentration") is that concentration of the respective test substance which brings about a 50 percent inhibition of the specific binding of the tritiated diazepam at the specific benzodiazepine receptors in the cerebral cortex.

Series [2] relates to diazepam effect in the pentetrazole test. Kind of series: Antagonism of diazepam in the pentetrazole test. The format is in vivo. To be noted: Mus musculus, po; mice; diazepam 5 mg/kg i.p. one hour before and compound p.o. 15 minutes before pentetrazole 120 mg/kg i.p.; read-out: Antagonism of diazepam ED 50. On the procedure: This property was used to elaborate the test described hereinafter which permits the investigation of compounds capable of antagonizing the central properties of 1,4-benzodiazepines having tranquillizing activity.
(§1) The antagonistic activity of the compounds investigated, that is, their capability to counteract the effect of the diazepam in the pentetrazole test, is determined by counting the mice which suffer spasmodic seizures in this test. The ED50 denotes the amount of the respective test compound in mg/kg (p.o.) which in 50% of the animals counteracts the diazepam effect in the above test.

A short description of series [3]: Acute toxicity, single oral administration to rats. To be noted: rat, in vivo, read-out: Toxicity LD 50. From the text: The results which have been obtained with representative members of the class of compound defined by formula I in the experiments described previously are compiled in the following Table. Moreover, the Table contains data concerning the acute toxicity of some of these compounds (LD50 in mg/kg in the case of single oral administration to rats).

Series [4] concerns pentetrazole-induced spasmodic seizures. As to the kind of experiment: Antipentetrazole test (protection from pentetrazole seizures). Format: in vivo. To be noted: Rattus norvegicus, po; female rats 60-80 g; p.o. 30 minutes before 120 mg/kg pentetrazole i.p.; 10 animals per dosage; Probit; read-out: Antipemtetrazole test ED 50. How it is done: The central properties of the compounds of formula I in accordance with the invention can be determined, for example, in the antipentetrazole animal model which is described hereinafter and which is generally recognized for recording anticonvulsant properties.
In this animal model, the compound under investigation is administered orally to female rats weighing 60-80 g and 30 minutes later there are administered i.p. 120 mg/kg of pentetrazole, which causes emprosthotonus and tonic stretchings of the fore and/or hind limbs in unprotected experimental animals 1-4 minutes after the injection. Ten experimental animals are used per dosage of test substance. After counting the protected experimental animals the ED50 is determined according to the Probit method. The ED50 is that dosage which protects 50% of the experimental animals from the spasmodic seizures caused by pentetrazole.

For series [5] the test system is unchanged. As to the kind of experiment: Pentetrazole test, protection by diazepam. Format: in vivo. Conditions: 5 mg/kg (i.p.) diazepam, supramaximal dosage; more than 900 mice. On the procedure: as §1

Turning to `C=Cc1ncn2c1CN(C)C(=O)c1c(Cl)cccc1-2` [F, 7-chloro-4,5-dihydro-5-methyl-3-vinyl-6H-imidazo[1,5-a][1,4]benzodiazepin-6-one], the IC50 in series [1] came to 7.6 nM. Also, the ED50 in series [2] came out at 1.2 mg/kg. Moreover, the LD50 in series [3] is 1250 to 2500 mg/kg.
On the same counts, the results for `C#Cc1ncn2c1CN(C)C(=O)c1c(Cl)cccc1-2` [A, 7-chloro-3-ethynyl-4,5-dihydro-5-methyl-6H-imidazo[1,5-a][1,4]benzodiazepin-6-one] are 4.5 nM, 0.24 mg/kg and 312 to 625 mg/kg.
On to `CN1Cc2c(C#CC(C)(C)O)ncn2-c2cccc(Br)c2C1=O` [E, 7-bromo-4,5-dihydro-3-(3-hydroxy-3-methyl-1-butynyl)-5-methyl-6H-imidazo[1,5-a][1,4]benzodiazepin-6-one], for which the IC50 in series [1] came to 2 nM. Moreover, the ED50 in series [4] turned out to be 0.29 mg/kg. The LD50 in series [3] is 500 to 1000 mg/kg.
With `C#Cc1ncn2c1[C@@H]1CCCN1C(=O)c1c(Cl)cccc1-2` [D, (S)-8-chloro-1-ethynyl-11,12,13,13a-tetrahydro-9H-imidazo[1,5-a]pyrrolo[2,1-c][1,4]benzodiazepin-9-one], the IC50 in series [1] was 2.4 nM. Also, the ED50 was 1.5 mg/kg in series [4] and above 50 mg/kg in series [2]. The LD50 in series [3] was above 4000 mg/kg.
As to `CC#Cc1ncn2c1CN(C)C(=O)c1c(Cl)cccc1-2` [C, 7-chloro-4,5-dihydro-5-methyl-3-(1-propynyl)-6H-imidazo[1,5-a][1,4]benzodiazepin-6-one], the IC50 in series [1] was found to be 2.3 nM. For the same compound, the ED50 in series [2] turned out to be 0.36 mg/kg. Besides, the LD50 in series [3] was above 5000 mg/kg.
Consider `CN1C(=O)CN=C(c2ccccc2)c2cc(Cl)ccc21` [diazepam], for which, in series [5], the “protection from spasmodic seizures in the pentetrazole test” value is reported as “protected all experimental animals from spasmodic seizures”.
In the case of `C#Cc1ncn2c1CN(C)C(=O)c1cc(F)ccc1-2` [B, 3-ethynyl-8-fluoro-4,5-dihydro-5-methyl-6H-imidazo[1,5-a][1,4]benzodiazepine-6-one], the IC50 in series [1] is 24 nM. In series [2], the ED50 is 1.5 mg/kg. Besides, in series [3], the LD50 lay in the range of 312 to 625 mg/kg.
